For one assay, the system named is Candida albicans. The experiment in a line: Antimicrobial activity against Candida albicans ATCC 90028 up to 100 ug/disk after 42 hrs by disk susceptibility test. The assay is classed as functional, organism-based.
The test system of another assay is Cryptococcus neoformans. The experiment in a line: Antimicrobial activity against Cryptococcus neoformans ATCC 90112 up to 100 ug/disk after 42 hrs by disk susceptibility test. The assay is classed as functional, organism-based.
For another assay, the system named is Neisseria gonorrhoeae. The experiment in a line: Antimicrobial activity against Neisseria gonorrhoeae ATCC 49226 after 16 hrs by disk susceptibility test. It is filed as functional.
The next assay concerns Staphylococcus aureus. Nature of the assay: Antimicrobial activity against Staphylococcus aureus ATCC 29213 after 16 hrs by disk susceptibility test. The assay is classed as functional.
The subject of another assay is Enterococcus faecalis. The experiment in a line: Antimicrobial activity against Enterococcus faecalis ATCC 29212 after 16 hrs by disk susceptibility test. The assay is classed as functional.
The next assay has as its system Escherichia coli. Nature of the assay: Antimicrobial activity against Escherichia coli ATCC 25922 up to 100 ug/disk after 16 hrs by disk susceptibility test. The assay is classed as functional, organism-based.

Activity calls are given as the source filed them. The rule behind the calls is not given here.

As to `NC(=O)C(=O)NCCc1ccc(O)c(Br)c1`, the result in the assay on Candida albicans and in the assay with Cryptococcus neoformans was inactive. In addition, in the assay on Neisseria gonorrhoeae, the MIC stood at 10 µg.

On to `COc1ccc(C/C(=N/O)C(=O)NCCc2ccc(O)c(Br)c2)cc1Br`, for which the outcome with Candida albicans and in the assay with Cryptococcus neoformans was inactive. Moreover, the MIC against Neisseria gonorrhoeae and in the assay on Staphylococcus aureus was 6.25 µg in each case.

As for `O=C(NCCc1ccc(O)c(Br)c1)/C(Cc1ccc(Oc2cc(C/C(=N/O)C(=O)NCCc3ccc(O)c(Br)c3)cc(Br)c2O)c(Br)c1)=N\O` [BASTADIN1], the outcome in the assay with Candida albicans, in the assay with Cryptococcus neoformans and with Escherichia coli was inactive. For the same molecule, the MIC against Enterococcus faecalis amounted to 12.5 µg; against Neisseria gonorrhoeae, 50 µg; against Staphylococcus aureus, 6.25 µg.

As to `O=C(NCCc1ccc(O)c(Br)c1)/C(Cc1cc(Br)c(O)c(Oc2c(Br)cc(C/C(=N\O)C(=O)NCCc3ccc(O)c(Br)c3)cc2Br)c1)=N\O` [BASTADIN 2], the outcome with Candida albicans and in the assay on Cryptococcus neoformans was inactive. Further, the values for the MIC against Enterococcus faecalis, with Neisseria gonorrhoeae and with Staphylococcus aureus were 50 µg, 50 µg and 6.25 µg, respectively.

Consider `O=C(NCCc1ccc(O)c(Br)c1)/C(Cc1cc(Br)c(O)c(-c2cc(C/C(=N/O)C(=O)NCCc3ccc(O)c(Br)c3)cc(Br)c2O)c1)=N\O` [BASTADIN 3], for which the outcome in the assay on Candida albicans and in the assay on Cryptococcus neoformans was inactive. Further, the MIC was 3.12 µg against Enterococcus faecalis, 0.78 µg against Neisseria gonorrhoeae and 1.56 µg in the assay on Staphylococcus aureus.

On to `O=C1N/C=C/c2ccc(c(Br)c2)Oc2cc(cc(Br)c2O)CCNC(=O)/C(=N/O)Cc2cc(Br)c(c(Br)c2)Oc2cc(cc(Br)c2O)C/C1=N\O` [BASTADIN 4], for which the result in the assay with Candida albicans and with Cryptococcus neoformans was inactive. Also, the MIC amounted to 50 µg in the assay with Enterococcus faecalis, 12.5 µg against Neisseria gonorrhoeae and 12.5 µg with Staphylococcus aureus.

With `O=C1NCCc2cc(Br)c(O)c(c2)Oc2ccc(cc2Br)CCNC(=O)/C(=N\O)Cc2cc(Br)c(O)c(c2)Oc2c(Br)cc(cc2Br)C/C1=N/O` [BASTADIN 5], the outcome with Candida albicans and in the assay on Cryptococcus neoformans was inactive. Further, the MIC against Enterococcus faecalis worked out at 50 µg; in the assay with Neisseria gonorrhoeae, 50 µg; against Staphylococcus aureus it was 12.5 µg.

On to `O=C1NCCc2cc(Br)c(O)c(c2)Oc2c(Br)cc(cc2Br)CCNC(=O)/C(=N/O)Cc2cc(Br)c(O)c(c2)Oc2c(Br)cc(cc2Br)C/C1=N\O` [BASTADIN 6], for which the result in the assay with Candida albicans and in the assay with Cryptococcus neoformans was inactive. The MIC came out at 12.5 µg in the assay with Enterococcus faecalis and 6.25 µg against Staphylococcus aureus.

For the molecule `O=C(NCCc1ccc(O)c(Br)c1)/C(Cc1ccc(O)c(Br)c1)=N\O` [HEMIBASTADIN 1], the result in the assay on Candida albicans and with Cryptococcus neoformans was inactive. The MIC in the assay with Enterococcus faecalis came out at 50 µg; in the assay on Neisseria gonorrhoeae, 12.5 µg; in the assay with Staphylococcus aureus, 1.56 µg.

On to `O=C(NCCc1ccc(O)c(Br)c1)/C(Cc1cc(Br)c(O)c(Br)c1)=N\O` [HEMIBASTADIN 2], for which the result with Candida albicans and in the assay on Cryptococcus neoformans was inactive. For the same molecule, the MIC against Neisseria gonorrhoeae and in the assay on Staphylococcus aureus was 3.12 µg in each case.

As to `O=C(NCCc1ccc(O)c(Br)c1)[C@@H](O)Cc1ccc(O)c(Br)c1` [HEMIBASTADINOL 1], the outcome in the assay with Candida albicans and in the assay with Cryptococcus neoformans was inactive. The MIC with Enterococcus faecalis and with Neisseria gonorrhoeae was 50 µg each time.

For the origin of these results see ChEMBL document CHEMBL1158253, “Isolation and structure of hemibastadinols 1-3 from the Papua New Guinea marine sponge Ianthella basta” (1996).
